Test results as given in US12678478B2, “Compositions and methods for treating dysregulated wound healing” (The Regents of the University of California, priority 2020, dated 2026).

How the values were obtained:
[1] = test system: Col5a1CKO cardiac fibroblasts; test: Myofibroblast gene expression (qPCR) in Col5a1CKO cardiac fibroblasts generated ex vivo with or without cilengitide; assay type: cell-based, mouse; conditions: Cilengitide 1 μM, 7 days, Col5a1 floxed cardiac fibroblasts infected with lentiviral Cre, versus no cilengitide (FIG. 8F)
Experimental: For qPCR, and RNA-seq, the injured and uninjured regions of the heart were harvested at different time points following injury, RNA extracted using RNeasy Mini kit (Qiagen). cDNAs were generated using iScript cDNA Synthesis Kit (BioRad) and qPCR performed.
Cardiac fibroblasts were isolated from Col5a1 fl/fl mouse as described above. These cells were infected with Lentivirus-Large T antigen in presence of polybrene (8 μg/ml) for 16 h, treated with puromycin (2 μg/ml) for selection of infected cells. Immortalized cells were cultured with 10% FBS containing high glucose DMEM. Cells so immortalized were then infected with Lentivirus-Cre recombinase or lentivirus-GFP to generate Col5a1 deficient cardiac fibroblast or control cardiac fibroblast, respectively. These cells were cultured for 6-7 days and used for each experiment to determine effects on gene expression. To determine an effect of Cilengitide on these cells, Col5a1fl/fl cardiac fibroblasts were pretreated with Cilengitide (1 μM) in 10% FBS containing high glucose DMEM for 1 h before infection with lentivirus-Cre recombinase or lentivirus-GFP. […]
Given the upregulation of αvβ3 and αvβ5 integrins in Col5a1CKO cardiac fibroblasts, whether there was a causal relationship between these differentially expressed integrins and myofibroblast differentiation was determined. […]

Col5a1CKO animals = test: Acute ischemic cardiac injury (LAD ligation) in Col5a1CKO animals treated with cilengitide; assay type: in vivo, mouse
[2] = test system: control (Cre(−)Col5a1fl/fl) littermate animals; test: Acute ischemic cardiac injury (LAD ligation) in control littermates treated with cilengitide; assay type: in vivo, mouse
Experimental: All animal studies were approved by the Animal Research Committee, University of California, Los Angeles, Myocardial infarction was performed by ligating the left anterior descending (LAD) coronary artery following open thoracotomy. Briefly, Mice were anesthetized with ketamine (80 mg/kg)/xylazine (20 mg/kg) by intraperitoneal injection. Respiration was provided by mechanical ventilation with 95% 02 (tidal volume 0.5 ml, 130 breaths/min). The LAD coronary artery was ligated intramurally 2 mm from its origin with a 9-0 proline suture.
For experiments related to use of cilengitide, 20 mg/kg of Cilengitide diluted in PBS was administered by intraperitoneal injection every day until harvest and PBS was used as vehicle as a control.
For echocardiography, animals were continuously anesthetized with 1.5% isoflurane and 95% O2, Vevo2100 imaging system and a […] scan head (Toronto, Canada) were used to acquire short/long axis B-mode and M-mode images. Long axis B-mode view was used for analyzing peak longitudinal strain rate. […]
For Masson Trichrome staining, sections were stained using Masson Trichrome Stain kit (Thermo Scientific, 87019). Images were taken in heart sections from apex, mid-ventricle, and close to suture and fibrotic area analyzed from apex to mid-ventricle. Scar tissue area was calculated as the fraction of left ventricular surface area occupied by the scar tissue. […]

In the case of `CC(C)[C@H]1C(=O)N[C@@H](CCCN=C(N)N)C(=O)NCC(=O)N[C@@H](CC(=O)O)C(=O)N[C@H](Cc2ccccc2)C(=O)N1C` [cilengitide, Cilengitide], the “expression of myofibroblast markers” value [1] is reported as “significantly reduced”, the “fraction of animals exhibiting severe fibrosis” value (Col5a1CKO animals; 20 mg/kg daily for 14 days, 2 weeks post injury, severe = >50% fibrotic area (FIG. 8L)) is reported as 22% and the “degree of myocyte hypertrophy in the border zone (heart weight/body weight ratios and histological analysis)” value (Col5a1CKO animals; 20 mg/kg daily for 14 days, 2 weeks post injury, versus vehicle-injected group, p<0.05 (FIGS. 8N, 8O)) is reported as “substantially reduced”. For the same compound, the “Scar size expressed as a fraction of left ventricular surface area” value (Col5a1CKO animals; 20 mg/kg daily for 14 days, Masson trichrome, 2 weeks post injury, mean±S.D., n=9, p<0.05 versus Col5a1CKO+vehicle (FIGS. 8J, 8K)) was 41.2±16.1%, the “post injury cardiac function (EF, FS by echocardiography)” value (Col5a1CKO animals; 20 mg/kg daily intraperitoneal for 14 days from day of injury, 1 and 2 weeks after injury, versus vehicle-injected Col5a1CKO (FIGS. 8H, 8I)) was “complete rescue of function” and the “number of myofibroblasts (αSMA+vimentin+cells/vimentin+cells) in scars” value (Col5a1CKO animals; 2 weeks of cilengitide injection, 20 mg/kg daily, versus vehicle-injected group, p<0.05 (FIG. 8M)) was “significantly reduced”. For the same compound, the “post injury cardiac function (EF, FS by echocardiography)” value ([2]; 20 mg/kg daily for 14 days from day of injury, control littermates (FIG. 8H)) was “did not affect” and the scar size ([2]; 20 mg/kg daily for 14 days, control animals, 2 weeks post injury (FIGS. 8J, 8K)) was “did not affect”.
